Laboratory results taken from patent publication US5567693A, “Method for inhibiting angiogenesis, proliferation of endothelial or tumor cells and tumor growth” (American Cyanamid Company, priority 1994, dated 1996).
Structures can show the parent of a compound that is named as a salt. Where two headings read alike, the source gives them in different places.

How the values were obtained:
Format in all cases: cell-based
SW620 = assay: Antiproliferative activity in human tumor cell lines: SW620 (colon)
Protocol: (§1) The antiproliferative activity of the compounds of Formula I in an Adult Bovine Aortic Endothelial (ABAE) cell line and in Human Tumor cell lines is evaluated in three similar assays that measure growth inhibition. The assays are identified as follows:
(§2) PROTOCOL 1,2,and 3 are described in greater detail hereinbelow. In general, according to PROTOCOLS 1 and 2, the target ABAE and/or Human Tumor cells are exposed to the compounds of Formula I for 48 hours. PROTOCOL 3 exposes ABAE cells to the compounds for 4 days. A detailed description of the protocols is as follows:
(§3) The antiproliferative activity of the compounds of Formula I of the present invention is evaluated in a panel comprised of human tumor cell lines and an adult bovine aortic endothelial cell line (ABAE). The human tumor cell lines are from
(§4) All cell lines are maintained in log phase in RPMI 1640 media, supplemented with 5% fetal calf serum, penicillin/streptomycin and 2 mM L-glutamine. Cultures are renewed after 20 passages with cells from a fresh stock of batch-frozen early passage cells. Cell lines are routinely checked for mycoplasma contamination (Genprobe). In a laminar flow hood, cells (1-5×10^4) are plated into 96-well microtiter plates in a volume of 0.1 ml/well with a bulk microtiter dispenser (Denley). […] At this concentration, dimethylsulfoxide has no effect on cell growth. Compounds are added using a Tomtec dispenser which simultaneously dispenses from one 96-well plate, containing the drug dilutions, to the plates containing the cells. After two days of continuous drug exposure, 50% cold trichloroacetic acid (TCA) is added to 10% final concentration to fix the cells, and after 60 minutes at 4° C., the TCA is aspirated and the plates are washed 5 times with deionized water using a microtiter plate washer. The number of cells on the plate are quantitated using a protein dye-binding assay (Monks et al., 1991). A 0.4% solution of the dye, sulforhodamine B, in glacial acetic acid is added to the plates, and the plates are washed 5 times with 1% glacial acetic acid using the automatic plate washed. The bound stain is solubilized with 0.1 ml of 10 mM Tris base. The optical densities are read from an automatic spectrophotometric plate reader (Dynatech) directly to a main frame computer (VAX 8600).
(§5) Positive controls, that include standard chemotherapeutic drugs (i.e., Adriamycin, Cisplatin, etc.), are included in every experiment.
(§6) Background optical density measurements (complete media-cells, and complete media+drug-cells) are automatically subtracted from the appropriate control and test wells. Mean values and standard errors are determined from duplicate wells. A measure is also made of the optical density at time when the drugs are added. The number of cells after treatment (P), as % of control, is calculated for every concentration of drug, as follows: [formula] wherein: T is optical density measurement for treated cells after 48 hours;
(§7) C is optical density measurement for untreated cells after 48 hours;
(§8) Co is optical density measurement for cells at the time of drug addition.
(§9) IC50 of growth inhibition is calculated from the sets of P values using the RS-1 data package (BBN Software).
(§10) The antiproliferative activity of the compounds of Formula I is evaluated in a panel comprised of human tumor cell lines and an adult bovine aortic cell line (ABAE) as listed in PROTOCOL 1. This assay is a modification of PROTOCOL 1. The modifications include:
(§11) 1) each concentration for each compound is tested in a single well;
(§12) 2) compounds are tested at 20, 4, 0.8, 0.16 microgram/ml and additionally in some experiments at 100 and 0.32 microgram/ml;
(§13) 3) samples are pipetted into a 96-well plate for each of the cell lines by a Beckman Biomek 1000 SL robot;
(§14) 4) after fixing with TCA each well is washed with 0.35 ml distilled water twice, not five times;
(§15) 5) after staining with sulforhodamine B each well is washed 3 times, not five times; […]

MIP = assay: Antiproliferative activity in human tumor cell lines: MIP (colon); conditions: PROTOCOL 1 and PROTOCOL 2, 48 hours
Protocol: as §1, §2, §3, §4, §5, §6, §7, §8, §9, §10, §11, §12, §13, §14, §15

[1] = tested on: Adult Bovine Aortic Endothelial (ABAE) cell line; assay: Antiproliferative activity in ABAE cell line, PROTOCOL 1; conditions: Bos taurus, PROTOCOL 1, 48 hours
Protocol: The antiproliferative activity of the compounds of Formula I in an Adult Bovine Aortic Endothelial (ABAE) cell line and in Human Tumor cell lines is evaluated in three similar assays that measure growth inhibition. The assays are identified as follows: PROTOCOL 1,2,and 3 are described in greater detail hereinbelow. In general, according to PROTOCOLS 1 and 2, the target ABAE and/or Human Tumor cells are exposed to the compounds of Formula I for 48 hours. PROTOCOL 3 exposes ABAE cells to the compounds for 4 days. A detailed description of the protocols is as follows: PROTOCOL 1 Antiproliferative Activity in Human Tumor and Adult Bovine Aortic Endothelial Cell Lines (ABAE) The antiproliferative activity of the compounds of Formula I of the present invention is evaluated in a panel comprised of human tumor cell lines and an adult bovine aortic endothelial cell line (ABAE). The human tumor cell lines are from All cell lines are maintained in log phase in RPMI 1640 media, supplemented with 5% fetal calf serum, penicillin/streptomycin and 2 mM L-glutamine. Cultures are renewed after 20 passages with cells from a fresh stock of batch-frozen early passage cells. Cell lines are routinely checked for mycoplasma contamination (Genprobe). In a laminar flow hood, cells (1-5×10^4) are plated into 96-well microtiter plates in a volume of 0.1 ml/well with a bulk microtiter dispenser (Denley). […] At this concentration, dimethylsulfoxide has no effect on cell growth. Compounds are added using a Tomtec dispenser which simultaneously dispenses from one 96-well plate, containing the drug dilutions, to the plates containing the cells. After two days of continuous drug exposure, 50% cold trichloroacetic acid (TCA) is added to 10% final concentration to fix the cells, and after 60 minutes at 4° C., the TCA is aspirated and the plates are washed 5 times with deionized water using a microtiter plate washer. The number of cells on the plate are quantitated using a protein dye-binding assay (Monks et al., 1991). A 0.4% solution of the dye, sulforhodamine B, in […] is added to the plates, and the plates are washed 5 times with 1% […] using the automatic plate washed. The bound stain is solubilized with 0.1 ml of 10 mM Tris base. The optical densities are read from an automatic spectrophotometric plate reader (Dynatech) directly to a main frame computer (VAX 8600). Positive controls, that include standard chemotherapeutic drugs (i.e., Adriamycin, Cisplatin, etc.), are included in every experiment. Background optical density measurements (complete media-cells, and complete media+drug-cells) are automatically subtracted from the appropriate control and test wells. Mean values and standard errors are determined from duplicate wells. A measure is also made of the optical density at time when the drugs are added. The number of cells after treatment (P), as % of control, is calculated for every concentration of drug, as follows: [formula] wherein: T is optical density measurement for treated cells after 48 hours; C is optical density measurement for untreated cells after 48 hours; Co is optical density measurement for cells at the time of drug addition. IC50 of growth inhibition is calculated from the sets of P values using the RS-1 data package (BBN Software). Table 1 presents the results depicting the antiproliferative activity of the compounds of Formula I against an Adult Bovine Aortic Endothelial cell line (ABAE), as evaluated by PROTOCOL 1 and 2. The results are presented in terms of IC50 and are as follows.

[2] = SW-620, SW620 colon tumor, PROTOCOL 1 and PROTOCOL 2, 48 hours, read-out: IC50

| Structure (SMILES) | IC50 (SW620; [2]) | IC50 (MIP) | IC50 [1] | IC50 (SW620; SW-620, 48 h) |
| --- | --- | --- | --- | --- |
| CN(C)CC(=O)Nc1c(Cl)cc2c(c1O)C(=O)C1=C(O)[C@]3(O)C(=O)C(C(N)=O)=C(O)[C@@H](N(C)C)C3CC1C2 (stereo partly drawn) [Example 3, [4S-(45, 12aα)]-8-Chloro-4-(dimethylamino)-9[[(dimethylamino)acetyl]amino]-1,4,4a,5,5a,6,11,12a-octahydro-3,10,12,12a-tetrahydroxy-1,11-dioxo-2-naphthacenecarboxamide disulfate] | 2.3 µg/mL | 2.2 µg/mL | 2.2 µg/mL |  |
| CN(C)[C@@H]1C(O)=C(C(N)=O)C(=O)[C@@]2(O)C(O)=C3C(=O)c4c(cc(Cl)c(NC(=O)CNCC5CC5)c4O)CC3CC12 (stereo partly drawn) [Example 8, [4S-(4α,12aα)]-8-Chloro-9-[[(cyclopropylmethylamino)-acetyl]amino]4-(dimethylamino)-1,4,4a,5,5a,6,11,12a-octahydro-3,10,12,12a-tetrahydroxy-1,11-dioxo-2-naphthacenecarboxamide dihydrochloride] | 2.4 µg/mL | 3.8 µg/mL | 2 µg/mL |  |
| CCCNCC(=O)Nc1c(Cl)cc2c(c1O)C(=O)C1=C(O)[C@]3(O)C(=O)C(C(N)=O)=C(O)[C@@H](N(C)C)C3CC1C2 (stereo partly drawn) [Example 5, [4S-(4α, 12aα)]-8-Chloro-4-(dimethylamino)-1,4,4a,5,5a, 6,11,12a-octahydro-3,10,12,12a-tetrahydroxy-1,11-dioxo-9-[[(propylamino)acetyl]amino]-2-naphthacenecarboxamide dihydrochloride] | 3.5 µg/mL | 10 µg/mL | 2 µg/mL |  |
| CCCCNCC(=O)Nc1c(Cl)cc2c(c1O)C(=O)C1=C(O)[C@]3(O)C(=O)C(C(N)=O)=C(O)[C@@H](N(C)C)C3CC1C2 (stereo partly drawn) [Example 4, [4S-(4α, 12aα)]-9-[[(Butylamino)acetyl]amino]-8-chloro-4-(dimethylamino) -1,4,4a,5,5a,6,11,12a-octahydro-3,10,12,12a-tetrahydroxy-1,11-dioxo-2-naphthacenecarboxamide dihydrochloride] | 2.8 µg/mL | 3.1 µg/mL | 2.3 µg/mL |  |
| CN(C)c1c(Cl)cc(O)c2c1CC1CC3[C@H](N(C)C)C(O)=C(C(N)=O)C(=O)[C@@]3(O)C(O)=C1C2=O (stereo partly drawn) [Example 11, [4S-(4α,12aα)]-8-Chloro-4,7-bis(dimethylamino)-1,4,4a,5,5a,6,11,12a-octahydro-3,10,12,12a-tetrahydroxy-1,11-dioxo-2-naphthacenecarboxamide sulfate] | 4.5 µg/mL | 2.6 µg/mL | 3 µg/mL |  |
| CN(C)[C@@H]1C(O)=C(C(N)=O)C(=O)[C@@]2(O)C(O)=C3C(=O)c4c(cc(Cl)c(NC(=O)CN5CCCCC5)c4O)CC3CC12 (stereo partly drawn) [Example 10, 7S-(7α,10aα)]-N-[9-(Aminocarbonyl)-3-chloro-7-(dimethylamino)-5,5a,6,6a,7,10,10a,12-octahydro-1,8,10a,11-tetrahydroxy-10,12-dioxo-2-naphthacenyl]-1-piperidineacetamide dihydrochloride] |  | 0.7 µg/mL | 0.7 µg/mL | 0.6 µg/mL |
| CNCC(=O)Nc1c(Cl)cc2c(c1O)C(=O)C1=C(O)[C@]3(O)C(=O)C(C(N)=O)=C(O)[C@@H](N(C)C)C3CC1C2 (stereo partly drawn) [Example 7, [4S-(4α, 12aα)]-8-Chloro-4-(dimethylamino)-1,4,4a,5,5a,6,11,12a-octahydro-3,10,12,12a-tetrahydroxy-1,11-dioxo-9-[[(methylamino)acetyl]amino]-2-naphthacenecarboxamide dihydrochloride] | 4 µg/mL | 8.5 µg/mL | 3.3 µg/mL |  |
| CN(C)[C@@H]1C(O)=C(C(N)=O)C(=O)[C@@]2(O)C(O)=C3C(=O)c4c(cc(Cl)c(NC(=O)CN5CCCC5)c4O)CC3CC12 (stereo partly drawn) [Example 9, [7S-(7α,10aα)]-N-[9-(Aminocarbonyl)-3-chloro-7-(dimethylamino)-5,5a,6,6a,7,10,10a,12-octahydro-1,8,10a,11-tetrahydroxy-10,12-dioxo-2-naphthacenyl]-1-pyrrolidineacetamide dihydrochloride] |  | 0.8 µg/mL | 2.5 µg/mL | 2 µg/mL |
| CCCCCNCC(=O)Nc1c(Cl)cc2c(c1O)C(=O)C1=C(O)[C@]3(O)C(=O)C(C(N)=O)=C(O)[C@@H](N(C)C)C3CC1C2 (stereo partly drawn) [Example 6, [4S-(4α, 12aα)]-8-Chloro-4-(dimethylamino)-1,4,4a,5,5a,6,11,12a-octahydro-3,10,12,12a-tetrahydroxy-1,11-dioxo-9-[[(pentylamino)acetyl]amino]-2-naphthacenecarboxamide dihydrochloride] |  | 1.5 µg/mL | 0.6 µg/mL | 0.8 µg/mL |
